The numbers were not newly measured in paper PMC3025356, “Mechanism of the Ca^2+-Dependent Interaction between S100A4 and Tail Fragments of Nonmuscle Myosin Heavy Chain IIA” (Journal of Molecular Biology, 2011), which cites them from elsewhere.

Like-named read-outs stand apart in the source and are kept apart here.

For series [1] the following is noted: cited from earlier work. Here is the method: S100A4 contains two tyrosine residues (one in each of the EF-hand domains), and mutating each in turn to phenylalanine enabled us to identify the source of the signal change. […] Ca^2+ binds to the S100A4 dimer with an affinity of around 2–6 μM. […] Regarding the assignment of the sites to EF1 or EF2, the E33Q mutant appears more similar to wild-type S100A4 than the D63N mutant and has an intact EF2 site, as determined by tyrosine and Quin-2 fluorescence (Fig. 3a; ...

The conditions of series [2]: 37 °C, 20 mM KCl, cited from earlier work. Here is the method: At 10 °C, the first site became associated with negative enthalpy but retained a ...

Consider “S100A4: recombinant S100A4 expressed in E. coli BL21(DE3)”, for which, in series [1] (amplitude of tyrosine fluorescence change on addition of Ca^2+), the “Ca^2+ bound per S100A4 monomer” value is on record as 1.7 ± 0.18 Ca^2+ bound per S100A4 monomer. Moreover, the “Ca^2+ dissociation rate constant (tyrosine)” value in series [1] is given as 20 s^− 1. In addition, the Kd was 54 µM in series [2] (read-out: Kd, site with negative enthalpy) and 3.3 µM in series [2] (read-out: Kd, site with positive enthalpy).
